Each compound was assayed against T1, Avi-KRAS G12R (1-169) GppNHp/RAF1 RBD-3xFLAG (52-151) (Homo sapiens, UniProt P01116, G12R) (assay: Raf1-KRAS G12R-GppNHP disruption HTRF assay (Biological Example 1)). Conditions: KRAS G12R, GppNHp-loaded; Table 11.
T1 construct: Avi-KRAS G12R (1-169)
Assay type: binding
In short: (§1)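 Using HTRF, the loss of KRAS–effector RAF1 complex was quantified in 50 mM Tris pH 7.5 buffer with 100 mM NaCl and 0.1% BSA. The protein step and reagent step ran 1 h each at room temperature. Activity normalized with DMSO taken as 100%.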

T1 sequence (P01116 1-169 isoform P01116-2 G12R): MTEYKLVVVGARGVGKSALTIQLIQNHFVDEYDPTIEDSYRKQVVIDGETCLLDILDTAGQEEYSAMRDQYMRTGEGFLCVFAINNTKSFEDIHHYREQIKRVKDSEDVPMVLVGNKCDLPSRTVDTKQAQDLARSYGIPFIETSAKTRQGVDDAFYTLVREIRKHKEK

SMILES	IC50 [nM]
CCN(c1nc(OC[C@@]23CCCN2C[C@H](F)C3)nc2c(F)c(-c3ccc(F)c4sc(N)c(C#N)c34)c(C(F)(F)F)cc12)[C@@H]1CCN(C(C)=O)C1 [Compound 268]	< 100

Same assay, conditions: KRAS G12R-GppNHp/RAF1 RBD HTRF

SMILES	IC50 [nM]
N#Cc1c(N)sc2c(F)ccc(-c3c(C(F)(F)F)cc4c(N5CCCC[C@@H](O)C5)nc(OC[C@@]56CCCN5C[C@H](F)C6)nc4c3F)c12 [Compound 286]	< 100
CC(=O)N1CC(N(C)c2nc(OCC34CCCN3CC(F)C4)nc3c(F)c(-c4ccc(F)c5sc(N)c(C#N)c45)c(C(F)(F)F)cc23)CC1C (centres unmarked) [Compound 291]	100 to 1000
CC(=O)N1C[C@H](N(C)c2nc(OC[C@@]34CCCN3C[C@H](F)C4)nc3c(F)c(-c4ccc(F)c5sc(N)c(C#N)c45)c(C(F)(F)F)cc23)C[C@@H]1C [Compound 298]	100 to 1000
CCC(=O)N1CC[C@@H](N(CC)c2nc(OC[C@@]34CCCN3C[C@H](F)C4)nc3c(F)c(-c4ccc(F)c5sc(N)c(C#N)c45)c(C(F)(F)F)cc23)C1 [Compound 327]	100 to 1000

These compounds were tested against T2, Avi-KRAS G12V (1-169) GppNHp/RAF1 RBD-3xFLAG (52-151) (Homo sapiens, UniProt P01116, G12V) (assay: Raf1-KRAS G12V-GppNHP disruption HTRF assay (Biological Example 1)). Conditions: KRAS G12V, GppNHp-loaded; Table 11.
T2 construct: Avi-KRAS G12V (1-169)
Assay type: binding
In short: as §1

T2 sequence (P01116 1-169 isoform P01116-2 G12V): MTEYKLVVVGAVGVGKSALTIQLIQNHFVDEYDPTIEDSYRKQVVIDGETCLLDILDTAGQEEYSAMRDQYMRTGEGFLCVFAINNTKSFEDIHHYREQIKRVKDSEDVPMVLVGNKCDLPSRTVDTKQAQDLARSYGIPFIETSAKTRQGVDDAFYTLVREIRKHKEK

SMILES	IC50 [nM]
CCN(c1nc(OC[C@@]23CCCN2C[C@H](F)C3)nc2c(F)c(-c3ccc(F)c4sc(N)c(C#N)c34)c(C(F)(F)F)cc12)[C@@H]1CCN(C(C)=O)C1 [Compound 268]	100 to 1000

Same assay, conditions: KRAS G12V-GppNHp/RAF1 RBD HTRF

SMILES	IC50 [nM]
N#Cc1c(N)sc2c(F)ccc(-c3c(C(F)(F)F)cc4c(N5CCCC[C@@H](O)C5)nc(OC[C@@]56CCCN5C[C@H](F)C6)nc4c3F)c12 [Compound 286]	100 to 1000
CC(=O)N1CC(N(C)c2nc(OCC34CCCN3CC(F)C4)nc3c(F)c(-c4ccc(F)c5sc(N)c(C#N)c45)c(C(F)(F)F)cc23)CC1C (centres unmarked) [Compound 291]	100 to 1000
CC(=O)N1C[C@H](N(C)c2nc(OC[C@@]34CCCN3C[C@H](F)C4)nc3c(F)c(-c4ccc(F)c5sc(N)c(C#N)c45)c(C(F)(F)F)cc23)C[C@@H]1C [Compound 298]	100 to 1000
CCC(=O)N1CC[C@@H](N(CC)c2nc(OC[C@@]34CCCN3C[C@H](F)C4)nc3c(F)c(-c4ccc(F)c5sc(N)c(C#N)c45)c(C(F)(F)F)cc23)C1 [Compound 327]	100 to 1000

What follows are compounds tested on GP2d cells (KRAS G12D) (assay: Cell-based pERK HTRF assay in GP2d cell (Biological Example 2)). Conditions: GP2d (KRAS G12D) cells.
In short: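 60 min compound, 0.25% DMSO, 9-pt half-log curve from 1 μM or 100 nM; DMEM/10% FBS.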

SMILES	IC50 [nM]
CC(=O)N1CC(N(C)c2nc(OCC34CCCN3CC(F)C4)nc3c(F)c(-c4ccc(F)c5sc(N)c(C#N)c45)c(C(F)(F)F)cc23)CC1C (centres unmarked) [Compound 291]	< 100

Same assay, conditions: GP2d (KRAS G12D) cells, pERK HTRF

SMILES	IC50 [nM]
CC(=O)N1CC(N(C)c2nc(OCC34CCCN3CC(F)C4)nc3c(F)c(-c4ccc(F)c5sc(N)c(C#N)c45)c(C(F)(F)F)cc23)CC1C (centres unmarked) [Compound 291]	< 100

Same assay, conditions: GP2d, GP2d (KRAS G12D) cells

SMILES	IC50 [nM]
CCN(c1nc(OC[C@@]23CCCN2C[C@H](F)C3)nc2c(F)c(-c3ccc(F)c4sc(N)c(C#N)c34)c(C(F)(F)F)cc12)[C@@H]1CCN(C(C)=O)C1 [Compound 268]	< 100
N#Cc1c(N)sc2c(F)ccc(-c3c(C(F)(F)F)cc4c(N5CCCC[C@@H](O)C5)nc(OC[C@@]56CCCN5C[C@H](F)C6)nc4c3F)c12 [Compound 286]	< 100
CC(=O)N1C[C@H](N(C)c2nc(OC[C@@]34CCCN3C[C@H](F)C4)nc3c(F)c(-c4ccc(F)c5sc(N)c(C#N)c45)c(C(F)(F)F)cc23)C[C@@H]1C [Compound 298]	< 100
CCC(=O)N1CC[C@@H](N(CC)c2nc(OC[C@@]34CCCN3C[C@H](F)C4)nc3c(F)c(-c4ccc(F)c5sc(N)c(C#N)c45)c(C(F)(F)F)cc23)C1 [Compound 327]	< 100

Same assay, conditions: GP2d, GP2d (KRAS G12D) cells, pERK HTRF

SMILES	IC50 [nM]
CCN(c1nc(OC[C@@]23CCCN2C[C@H](F)C3)nc2c(F)c(-c3ccc(F)c4sc(N)c(C#N)c34)c(C(F)(F)F)cc12)[C@@H]1CCN(C(C)=O)C1 [Compound 268]	< 100
N#Cc1c(N)sc2c(F)ccc(-c3c(C(F)(F)F)cc4c(N5CCCC[C@@H](O)C5)nc(OC[C@@]56CCCN5C[C@H](F)C6)nc4c3F)c12 [Compound 286]	< 100
CC(=O)N1C[C@H](N(C)c2nc(OC[C@@]34CCCN3C[C@H](F)C4)nc3c(F)c(-c4ccc(F)c5sc(N)c(C#N)c45)c(C(F)(F)F)cc23)C[C@@H]1C [Compound 298]	< 100
CCC(=O)N1CC[C@@H](N(CC)c2nc(OC[C@@]34CCCN3C[C@H](F)C4)nc3c(F)c(-c4ccc(F)c5sc(N)c(C#N)c45)c(C(F)(F)F)cc23)C1 [Compound 327]	< 100

Each compound was assayed against T3, Avi-KRAS G12D (2-169) GTP/RAF1 RBD-3xFLAG (51-131) (Homo sapiens, UniProt P01116, G12D) (assay: Raf1-KRAS G12D-GTP disruption HTRF assay (Biological Example 3)). Conditions: KRAS G12D, GTP-loaded.
T3 construct: Avi-KRAS G12D (2-169)
Assay type: binding
In short: (§2)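 50 nM Avi-KRAS (2-169) GTP/RAF1 RBD complex; 75 nM RBD-Avi; pH 7.5 Tris buffer, 10% DMSO; cpd 30 μM top, 3x, 10 pts; 1 h RT, 700 rpm; HTRF, % of DMSO.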

T3 sequence (P01116 2-169 isoform P01116-2 G12D): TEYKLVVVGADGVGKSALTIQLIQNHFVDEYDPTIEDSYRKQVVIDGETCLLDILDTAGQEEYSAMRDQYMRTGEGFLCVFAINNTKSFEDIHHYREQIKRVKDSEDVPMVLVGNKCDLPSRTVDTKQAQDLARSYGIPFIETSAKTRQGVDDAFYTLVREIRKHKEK

SMILES	IC50 [nM]
CCN(c1nc(OC[C@@]23CCCN2C[C@H](F)C3)nc2c(F)c(-c3ccc(F)c4sc(N)c(C#N)c34)c(C(F)(F)F)cc12)[C@@H]1CCN(C(C)=O)C1 [Compound 268]	100 to 1000
N#Cc1c(N)sc2c(F)ccc(-c3c(C(F)(F)F)cc4c(N5CCCC[C@@H](O)C5)nc(OC[C@@]56CCCN5C[C@H](F)C6)nc4c3F)c12 [Compound 286]	100 to 1000
CC(=O)N1CC(N(C)c2nc(OCC34CCCN3CC(F)C4)nc3c(F)c(-c4ccc(F)c5sc(N)c(C#N)c45)c(C(F)(F)F)cc23)CC1C (centres unmarked) [Compound 291]	100 to 1000
CC(=O)N1C[C@H](N(C)c2nc(OC[C@@]34CCCN3C[C@H](F)C4)nc3c(F)c(-c4ccc(F)c5sc(N)c(C#N)c45)c(C(F)(F)F)cc23)C[C@@H]1C [Compound 298]	1000 to 10000
CCC(=O)N1CC[C@@H](N(CC)c2nc(OC[C@@]34CCCN3C[C@H](F)C4)nc3c(F)c(-c4ccc(F)c5sc(N)c(C#N)c45)c(C(F)(F)F)cc23)C1 [Compound 327]	100 to 1000

What follows are compounds tested against T4, Avi-KRAS G12V (2-169) GTP/RAF1 RBD-3xFLAG (51-131) (Homo sapiens, UniProt P01116, G12V) (assay: Raf1-KRAS G12V-GTP disruption HTRF assay (Biological Example 3)). Conditions: KRAS G12V, GTP-loaded.
T4 construct: Avi-KRAS G12V (2-169)
Assay type: binding
In short: as §2

T4 sequence (P01116 2-169 isoform P01116-2 G12V): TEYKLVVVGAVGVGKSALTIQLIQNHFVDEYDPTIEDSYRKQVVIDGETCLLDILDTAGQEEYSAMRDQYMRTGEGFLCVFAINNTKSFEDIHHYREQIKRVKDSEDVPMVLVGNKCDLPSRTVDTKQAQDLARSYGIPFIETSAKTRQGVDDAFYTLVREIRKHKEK

SMILES	IC50 [nM]
CCN(c1nc(OC[C@@]23CCCN2C[C@H](F)C3)nc2c(F)c(-c3ccc(F)c4sc(N)c(C#N)c34)c(C(F)(F)F)cc12)[C@@H]1CCN(C(C)=O)C1 [Compound 268]	100 to 1000
N#Cc1c(N)sc2c(F)ccc(-c3c(C(F)(F)F)cc4c(N5CCCC[C@@H](O)C5)nc(OC[C@@]56CCCN5C[C@H](F)C6)nc4c3F)c12 [Compound 286]	100 to 1000
CC(=O)N1CC(N(C)c2nc(OCC34CCCN3CC(F)C4)nc3c(F)c(-c4ccc(F)c5sc(N)c(C#N)c45)c(C(F)(F)F)cc23)CC1C (centres unmarked) [Compound 291]	100 to 1000
CC(=O)N1C[C@H](N(C)c2nc(OC[C@@]34CCCN3C[C@H](F)C4)nc3c(F)c(-c4ccc(F)c5sc(N)c(C#N)c45)c(C(F)(F)F)cc23)C[C@@H]1C [Compound 298]	100 to 1000
CCC(=O)N1CC[C@@H](N(CC)c2nc(OC[C@@]34CCCN3C[C@H](F)C4)nc3c(F)c(-c4ccc(F)c5sc(N)c(C#N)c45)c(C(F)(F)F)cc23)C1 [Compound 327]	100 to 1000

These compounds were tested against T5, Avi-KRAS WT (2-169) GTP/RAF1 RBD-3xFLAG (51-131) (Homo sapiens, UniProt P01116) (assay: Raf1-KRAS WT-GTP disruption HTRF assay (Biological Example 3)). Conditions: KRAS WT, GTP-loaded.
T5 construct: Avi-KRAS WT (2-169)
Assay type: binding
In short: as §2

T5 sequence (P01116 2-169 isoform P01116-2): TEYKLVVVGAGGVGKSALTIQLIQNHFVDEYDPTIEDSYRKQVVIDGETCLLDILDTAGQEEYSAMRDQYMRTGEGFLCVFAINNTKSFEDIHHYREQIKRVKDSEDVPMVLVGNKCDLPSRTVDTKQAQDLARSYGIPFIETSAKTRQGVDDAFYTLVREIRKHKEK

SMILES	IC50 [nM]
CCN(c1nc(OC[C@@]23CCCN2C[C@H](F)C3)nc2c(F)c(-c3ccc(F)c4sc(N)c(C#N)c34)c(C(F)(F)F)cc12)[C@@H]1CCN(C(C)=O)C1 [Compound 268]	100 to 1000
N#Cc1c(N)sc2c(F)ccc(-c3c(C(F)(F)F)cc4c(N5CCCC[C@@H](O)C5)nc(OC[C@@]56CCCN5C[C@H](F)C6)nc4c3F)c12 [Compound 286]	100 to 1000
CC(=O)N1CC(N(C)c2nc(OCC34CCCN3CC(F)C4)nc3c(F)c(-c4ccc(F)c5sc(N)c(C#N)c45)c(C(F)(F)F)cc23)CC1C (centres unmarked) [Compound 291]	100 to 1000
CC(=O)N1C[C@H](N(C)c2nc(OC[C@@]34CCCN3C[C@H](F)C4)nc3c(F)c(-c4ccc(F)c5sc(N)c(C#N)c45)c(C(F)(F)F)cc23)C[C@@H]1C [Compound 298]	100 to 1000
CCC(=O)N1CC[C@@H](N(CC)c2nc(OC[C@@]34CCCN3C[C@H](F)C4)nc3c(F)c(-c4ccc(F)c5sc(N)c(C#N)c45)c(C(F)(F)F)cc23)C1 [Compound 327]	100 to 1000
